Test [1] can be described thus: Binding of peptides to synthetic melanin (Tricine-SDS-PAGE analysis). The conditions noted are these: for Binding of peptides on synthetic melanin, Mel + peptide 2 hours at pH 7.4: filtered (10 kDa) preformed melanin; for Binding of peptides on synthetic melanin, Mel + peptide 2 hours at pH 7.4 / Binding of peptides on synthetic melanin, Mel + peptide 18 hours at pH 7.4 / Binding of peptides on synthetic melanin, Mel + peptide 18 hours at pH 8.5 / Binding of peptides on synthetic melanin, Mel + peptide 10 minutes / Binding of peptides on synthetic melanin, Mel + peptide 2 hours / Binding of peptides on synthetic melanin, Mel + peptide 18 hours: peptide/L-Dopa 1/4; for Binding of peptides on synthetic melanin, Mel + peptide 18 hours at pH 7.4 / Binding of peptides on synthetic melanin, Mel + peptide 18 hours at pH 8.5: filtered preformed melanin; for Binding of peptides on synthetic melanin, Mel + peptide: L-Dopa polymerized first, peptide added (1/4); for Binding of peptides on synthetic melanin, Peptide-Mel: peptide/L-Dopa 1/4 mixed, then 2 hours at pH 8.5 and 60° C.; for Binding of peptides on synthetic melanin, Mel + peptide 10 minutes / Binding of peptides on synthetic melanin, Mel + peptide 2 hours / Binding of peptides on synthetic melanin, Mel + peptide 18 hours: filtered preformed melanin at pH 7.5; for peptide binding to melanin: binding-promoting amino-acid at NH2-terminal vs COOH terminal end. The text has this:
The binding of the peptide to the melanin can be verified by Tricine-SDS-PAGE analysis as described in Carpentier; 2017 (op. cit.). Briefly, samples (peptide-Mel or peptide alone) are loaded on acrylamide gels. Following electrophoresis, the gels are stained with Coomassie Brilliant Blue R-250, allowing the quantification of the free peptide in the gel. The binding of peptides to melanin can be expressed as the ratio: [amount of unbound peptide in samples Peptide-Mel/amount of peptides in control samples containing peptides alone.
Peptides were mixed with L-Dopa (weight ratio peptide/L-Dopa=1/4 and 1/6 for gp100 and EphA2, respectively) then incubated for 2 hours at pH 8.5 and 60° C. under agitation to ensure oxygenation of the solution to generate nanoparticles of melanin-bound peptides (Peptide-Mel). Alternatively, L-Dopa alone (0.8 mg/ml) was polymerized into melanin for 2 h at pH 8.5 and 60° C. under agitation, before the peptides (weight ratio peptide/L-Dopa=1/4 and 1/6 for gp100 and EphA2, respectively) were added to the solution (Mel+peptide). Tricine-SDS-PAGE analysis was performed as described in Carpentier; 2017 (op. cit.). Briefly, samples (peptide-Mel or peptide alone) were loaded on acrylamide gels. Following electrophoresis, the gels were stained with Coomassie Brilliant Blue R-250 and imaged with the ChemiDoc XRS+ system (Bio-Rad Laboratory), allowing the quantification of the free peptide in the gel. The binding of peptides to melanin was expressed as the ratio: [amount of unbound peptide in samples Peptide-Mel/amount of peptides in control samples containing peptides alone]
First column (Peptide-Mel): L-Dopa (0.8 mg/ml) was mixed with peptides (weight ratio peptide/L-Dopa=1/4) then incubated for 2 hours at pH 8.5 and 60° C. to generate nanoparticles of melanin-bound peptides. Alternatively (second column; Mel+peptide), L-Dopa alone (0.8 mg/ml) was first polymerized into melanin for 2 h at pH 8.5 and 60° C. under vigorous agitation, before the peptides (weight ratio peptide/L-Dopa=1/4) were added to the solution and incubated for 2 hours at room temperature. In both cases, the percentage of peptides that bound to melanin was then quantified with SPS-page analysis, as described in table 1. (ND=not done)
L-Dopa (0.8 mg/ml) underwent an oxidative polymerization at pH 8.5 in aerobic conditions for 2 hours at 60° C. The reaction mixture was then filtered on a 10 kDa filter, and the retentate containing the synthetic melanin was resuspended at pH 7.5 in phosphate buffer. Peptides were then added (at the weight ratio peptide/L-Dopa=1/4) and the mixture was incubated for various periods of time and or pH. The percentage of peptides that bound to melanin was then quantified with SPS-page analysis, as described in table 1. (ND=not done).
L-Dopa (0.8 mg/ml) underwent an oxidative polymerization at pH 8.5 and 60° C. for 2 hours. The reaction mixture was then filtered on a 10 kDa filter, and the retentate containing the synthetic melanin was resuspended at pH 7.5 in phosphate buffer. Peptides were then added (at the weight ratio peptide/L-Dopa=1/4) and the mixture was incubated for various periods of time. Binding of the peptides was then quantified with SPS-page analysis, as described in table 1. (ND=not done)

For test [2], the system named is humanized female HLADRB1* 0101/HLA-A*0201 (HHD DR1) mice. In words: CTL response (IFNg-SFCs of re-stimulated splenocytes) after subcutaneous immunization in humanized mice. The note with it: 10 μg/mouse subcutaneous, day 8, more than 10 spots is positive. The test is classed as in vivo. The procedure:
CTL response was evaluated after subcutaneous immunizations in humanized female HLADRB1* 0101/HLA-A*0201 (HHD DR1) mice.
L-Dopa (0.8 mg/ml) underwent an oxidative polymerization at pH 8.5 in aerobic conditions for 2 hours at 60° C. The reaction mixture was then filtered on a 10 kDa filter, and the retentate containing the synthetic melanin was resuspended at pH 7.5 in phosphate buffer.
Peptides (A10, SEQ ID NO: 29; A8, SEQ ID NO: 34; A30, SEQ ID NO: 31, 10 μg/mouse) were then added (at the weight ratio peptide/L-Dopa=1/4).
Mixtures (either Mel+peptides or Peptides alone) were rapidly (<1 hour) used for subcutaneous immunizations in mice. Phosphorothioate oligonucleotide CpG-28 (5′-[…], SEQ ID NO: 21) was added to vaccine formulations (10 μg/mouse) just before the immunizations. Mice were sacrificed on day 8 and the CTL response was performed as described in Carpentier; 2017. Briefly, splenocytes were re-stimulated in vitro with the corresponding peptide (non-conjugated to melanin) and the numbers of IFNg-SFCs (Spot forming cells) were measured and expressed as Mean+/−S.E.M. (n=4 to 8 mice/group). More than 10 spots is considered as a positive immune response

Non-standard residues stand in square brackets, D forms with d. No end group written: not given here. Hyp = O=C(O)[C@@H]1C[C@@H](O)CN1

On to “Acetyl-K SIYRYYGL (Ac-KSIYRYYGL) [SEQ ID NO: 7]”, for which, in test [1], the “Binding of peptides on synthetic melanin, Mel + peptide 2 hours at pH 7.4” value (from here on “Binding … Mel + peptide 2 hours at pH 7.4”) is listed as 0%; the “Binding of peptides on synthetic melanin, Mel + peptide 18 hours at pH 7.4” value (from here on “Binding … Mel + peptide 18 hours at pH 7.4”) is on record as 31%; the “Binding of peptides on synthetic melanin, Mel + peptide 18 hours at pH 8.5” value (from here on “Binding of peptides … at pH 8.5”) turned out to be 62%.

Regarding “Acetyl-R C SIYRYYGL (Ac-RCSIYRYYGL) [SEQ ID NO: 8]”, the “Binding of peptides on synthetic melanin, Mel + peptide” value in test [1] (2 hours at room temperature) came to 53%. In addition, in test [1], the “Binding … Mel + peptide 2 hours at pH 7.4” value was found to be 53%; the “Binding … Mel + peptide 18 hours at pH 7.4” value came out at 46%; the “Binding of peptides … at pH 8.5” value came out at 42%; the “Binding of peptides on synthetic melanin, Peptide-Mel” value (from here on “Binding of peptides … Peptide-Mel”) was 74%.

With “Acetyl-R F SIYRYYGL (Ac-RFSIYRYYGL) [SEQ ID NO: 13]”, in test [1] (2 hours at room temperature), the “Binding of peptides on synthetic melanin, Mel + peptide” value stood at 0%. In addition, in test [1], the “Binding … Mel + peptide 2 hours at pH 7.4” value was determined as 0% and the “Binding of peptides … Peptide-Mel” value was determined as 5%.

As for “Acetyl-R H SIYRYYGL (Ac-RHSIYRYYGL) [SEQ ID NO: 9]”, in test [1], the “Binding of peptides … Peptide-Mel” value is given as 60%.

As to “Acetyl-R M SIYRYYGL (Ac-RMSIYRYYGL) [SEQ ID NO: 11]”, in test [1], the “Binding … Mel + peptide 2 hours at pH 7.4” value turned out to be 0%; the “Binding … Mel + peptide 18 hours at pH 7.4” value is 13%; the “Binding of peptides … at pH 8.5” value was 32%.

Consider “Acetyl-R S SIYRYYGL (Ac-RSSIYRYYGL) [SEQ ID NO: 10]”, for which, in test [1], the “Binding … Mel + peptide 2 hours at pH 7.4” value is listed as 0% and the “Binding … Mel + peptide 18 hours at pH 7.4” value was determined as 12%.

With “Acetyl-R SIYRYYGL (Ac-RSIYRYYGL) [SEQ ID NO: 4]”, the “Binding of peptides on synthetic melanin, Mel + peptide” value in test [1] (2 hours at room temperature) is reported as 17%. In test [1], the “Binding … Mel + peptide 2 hours at pH 7.4” value is listed as 17%; the “Binding … Mel + peptide 18 hours at pH 7.4” value is reported as 2%; the “Binding of peptides … at pH 8.5” value was 0%; the “Binding of peptides … Peptide-Mel” value was 0%. In addition, the “melanin binding (in words), Peptide-Mel” value in test [1] (peptide mixed with L-Dopa, 2 hours at pH 8.5) is recorded as “No binding”.

Consider “Acetyl-R T SIYRYYGL (Ac-RTSIYRYYGL) [SEQ ID NO: 12]”, for which the “Binding of peptides on synthetic melanin, Mel + peptide” value in test [1] (2 hours at room temperature) was found to be 0%. In addition, in test [1], the “Binding … Mel + peptide 2 hours at pH 7.4” value is on record as 0% and the “Binding of peptides … Peptide-Mel” value is 10%.

On to “Acetyl-R W SIYRYYGL (Ac-RWSIYRYYGL) [SEQ ID NO: 14]”, for which the “Binding of peptides on synthetic melanin, Mel + peptide” value in test [1] (2 hours at room temperature) was found to be 0%. For the same substance, in test [1], the “Binding … Mel + peptide 2 hours at pH 7.4” value stood at 0% and the “Binding of peptides … Peptide-Mel” value was 56%.

For the substance “C KVPRNQDWL (CKVPRNQDWL; Modified gp100 peptide) [SEQ ID NO: 17]”, in test [1], the “Binding of peptides on synthetic melanin, Mel + peptide 10 minutes” value (“Binding of peptides … Mel + peptide 10 minutes” below) was found to be 9%; the “Binding of peptides on synthetic melanin, Mel + peptide 2 hours” value came out at 54%; the “Binding of peptides on synthetic melanin, Mel + peptide 18 hours” value was determined as 99%. Besides, in test [1] (preformed filtered melanin, 2 hours at room temperature), the “binding to melanin (in words), cysteine in oxidized or reduced state” value was “Binding was observed in both cases”.

In the case of “CKSVWSKLQSIGIRQH (Modified UCP2 Peptide) [A10]”, the figures for the “numbers of IFNg-SFCs (Spot forming cells), Mean” value (“numbers of IFNg-SFCs” for short) in test [2] (Mel + pept + CpG-28) and in test [2] (Pept + CpG-28) were 150 and 18, respectively.

Turning to “CKVFAGIPTV (Modified PTPRZ1 Epitope) [A30]”, the “numbers of IFNg-SFCs” value in test [2] (Mel + pept + CpG-28) is recorded as 182.

For “CKVFAGIPTVASDTV (Modified PTPRZ1 Epitope) [A8]”, the “numbers of IFNg-SFCs” value in test [2] (Mel + pept + CpG-28) is given as 29; in test [2] (Pept + CpG-28), 5.

“HydroxP KVPRNQDWL ([Hyp]KVPRNQDWL) [SEQ ID NO: 16]”: in test [1], the “Binding of peptides … Mel + peptide 10 minutes” value is 12%; the “Binding of peptides on synthetic melanin, Mel + peptide 2 hours” value amounted to 35%; the “Binding of peptides on synthetic melanin, Mel + peptide 18 hours” value is on record as 100%.

“HydroxyP SIYRYYGL ([Hyp]SIYRYYGL) [SEQ ID NO: 6]”: the “Binding of peptides on synthetic melanin, Mel + peptide” value in test [1] (2 hours at room temperature) was 23%. For the same substance, in test [1], the “Binding … Mel + peptide 2 hours at pH 7.4” value is 23%; the “Binding … Mel + peptide 18 hours at pH 7.4” value is 39%; the “Binding of peptides … at pH 8.5” value is reported as 74%; the “Binding of peptides … Peptide-Mel” value was determined as 95%.

Regarding “M KVPRNQDWL (MKVPRNQDWL; Modified gp100 peptide) [SEQ ID NO: 18]”, in test [1], the “Binding of peptides … Mel + peptide 10 minutes” value was determined as 7%; the “Binding of peptides on synthetic melanin, Mel + peptide 2 hours” value was determined as 43%; the “Binding of peptides on synthetic melanin, Mel + peptide 18 hours” value worked out at 100%.

“P KVPRNQDWL (PKVPRNQDWL; Modified gp100 peptide) [SEQ ID NO: 15]”: in test [1], the “Binding of peptides … Mel + peptide 10 minutes” value came to 13%; the “Binding of peptides on synthetic melanin, Mel + peptide 2 hours” value is reported as 11%; the “Binding of peptides on synthetic melanin, Mel + peptide 18 hours” value is 100%.

As to “P SIYRYYGL (PSIYRYYGL; Modified test peptide) [SEQ ID NO: 5]”, the “Binding of peptides on synthetic melanin, Mel + peptide” value in test [1] (2 hours at room temperature) came to 7%. Moreover, in test [1], the “Binding … Mel + peptide 2 hours at pH 7.4” value is reported as 7%; the “Binding … Mel + peptide 18 hours at pH 7.4” value is 22%; the “Binding of peptides … at pH 8.5” value came to 41%; the “Binding of peptides … Peptide-Mel” value came out at 87%.

“SIYRYYGL [SEQ ID NO: 3, reference compound]”: the “Binding of peptides on synthetic melanin, Mel + peptide” value in test [1] (2 hours at room temperature) was 0%. Moreover, in test [1], the “Binding … Mel + peptide 2 hours at pH 7.4” value is 0%; the “Binding … Mel + peptide 18 hours at pH 7.4” value was 28%; the “Binding of peptides … at pH 8.5” value was found to be 31%; the “Binding of peptides … Peptide-Mel” value is 90%.

Take VYDFFVWL-X [SEQ ID NO: 20]: in test [1], the “peptide binding to melanin” value is 55%.

With X-VYDFFVWL [SEQ ID NO: 19], in test [1], the “peptide binding to melanin” value is on record as 51%.

The values are drawn from US20230084978A1, “OPTIMIZATION OF PEPTIDE-MELANIN BINDING” (ASSITANCE PUBLIQUE - HÔPITAUX DE PARIS, priority 2020, published 2023).
